Source: patent US20260256792A1, “TREATMENT OF CHRONIC SPONTANEOUS URTICARIA BY ADMINISTERING (R)-2-[3-[4-AMINO-3-(2-FLUORO-4-PHENOXY-PHENYL)PYRAZOLO[3,4-D]PYRIMIDIN-1-YL]PIPERIDINE-1-CARBONYL]-4-METHYL-4-[4-(OXETAN-3-YL)PIPERAZIN-1-YL]PENT-2-ENENITRILE” (priority 2023, published 2026)

Test system: angioedema in CSU patients
Experiment: Phase 2 CSU study: angioedema activity score over 7 days (AAS7)
Format: in vivo, human
Parameters: AAS7, Median / AAS7 Change from baseline, Median: scale not given here
Conditions: for Non-responder n (%), AAS7 = 0 / OR (95% CI) for rilzabrutinib vs. placebo, AAS7 = 0 / RRD (%) for rilzabrutinib vs. placebo (95% CI), AAS7 = 0 / Responder n (%), AAS7 = 0: outlier removed
Source text: The study comprises a 12 week, randomized, double-blind, placebo-controlled, multi-center, dose-ranging efficacy and safety phase, followed by a 40 week open label extension (OLE) phase (see FIG. 1). The study consists of three phases and an optional OLE phase. […] The weekly angioedema activity score (AAS7) was proposed as a tertiary endpoint. […] Patients were to complete the AAS using the e-diary. The e-diary was to be used once daily on the same time of each day recording of participant's answers to the angioedema activity score over 7 days (AAS7) questionnaire.

[1] = 400 mg TID, Week 8, omalizumab-naïve, angioedema at baseline
[2] = 400 mg TID, Week 9, ITT, angioedema at baseline
[3] = 400 mg TID, Week 9, omalizumab-naïve
[4] = 400 mg TID, Week 9, omalizumab-naïve, angioedema at baseline
[5] = 400 mg TID, Week 10, ITT, angioedema at baseline
[6] = 400 mg TID, Week 10, omalizumab-naïve
[7] = 400 mg TID, Week 10, omalizumab-naïve, angioedema at baseline
[8] = 400 mg TID, Week 11, ITT, angioedema at baseline
[9] = 400 mg TID, Week 11, omalizumab-naïve
[10] = 400 mg TID, Week 11, omalizumab-naïve, angioedema at baseline
[11] = 400 mg TID, Week 12, ITT, angioedema at baseline
[12] = 400 mg TID, Week 12, omalizumab-naïve
[13] = 400 mg TID, Week 12, omalizumab-naïve, angioedema at baseline
[14] = 400 mg TID, omalizumab-naïve population, angioedema at baseline
[15] = End of Study, 400 mg TID, Incomplete Responders with angioedema at baseline, both values imputed
[16] = Omalizumab-Naïve Population, 400 mg BID, End of Study
[17] = Omalizumab-Naïve Population, 400 mg BID, Week 1
[18] = Omalizumab-Naïve Population, 400 mg BID, Week 2
[19] = Omalizumab-Naïve Population, 400 mg BID, Week 3
[20] = Omalizumab-Naïve Population, 400 mg BID, Week 4
[21] = Omalizumab-Naïve Population, 400 mg BID, Week 5
[22] = Omalizumab-Naïve Population, 400 mg BID, Week 6
[23] = Omalizumab-Naïve Population, 400 mg BID, Week 7
[24] = Omalizumab-Naïve Population, 400 mg BID, Week 8
[25] = Omalizumab-Naïve Population, 400 mg BID, Week 9

## CC(C)(C=C(C#N)C(=O)N1CCC[C@@H](n2nc(-c3ccc(Oc4ccccc4)cc3F)c3c(N)ncnc32)C1)N1CCN(C2COC2)CC1 [rilzabrutinib, (R)-2-[3-[4-amino-3-(2-fluoro-4-phenoxy-phenyl)pyrazolo[3,4-d]pyrimidin-1-yl]piperidine-1-carbonyl]-4-methyl-4-[4-(oxetan-3-yl)piperazin-1-yl]pent-2-enenitrile]
[1]
  AAS7 = 0, OR (95% CI) for rilzabrutinib vs. placebo: 0.690
  AAS7 = 0, RRD (%) for rilzabrutinib vs. placebo (95% CI): −6.2 %
  AAS7 Post-baseline Mean (SD): 12.20 (13.05)
  Participants with AAS7 = 0, Responder n (%): 6 (26.1) n (%)
[2]
  AAS7 % Change difference for rilzabrutinib vs. placebo LS Mean (95% CI): −34.54 (−64.85, −4.23) %
  AAS7 Change difference for rilzabrutinib vs. placebo LS Mean (95% CI): −13.12 (−23.93, −2.31)
  AAS7 Change from baseline LS Mean (SE): −42.57 (4.09)
  AAS7 Post-baseline Mean (SD): 7.98 (11.59)
[3]
  Non-responder n (%), AAS7 = 0: 15 (44.1) n (%)
  OR (95% CI) for rilzabrutinib vs. placebo, AAS7 = 0: 1.155
  RRD (%) for rilzabrutinib vs. placebo (95% CI), AAS7 = 0: 3.6 %
  Responder n (%), AAS7 = 0: 19 (55.9) n (%)
[4]
  AAS7 % Change difference for rilzabrutinib vs. placebo LS Mean (95% CI): −37.56 (−71.28, −3.83) %
  AAS7 % Change from baseline LS Mean (SE): −84.73 (12.57) %
  AAS7 = 0, Non-responder n (%): 13 (56.5) n (%)
  AAS7 = 0, OR (95% CI) for rilzabrutinib vs. placebo: 1.358
  AAS7 = 0, RRD (%) for rilzabrutinib vs. placebo (95% CI): 6.9 %
  AAS7 Post-baseline Mean (SD): 8.52 (12.19)
  Participants with AAS7 = 0, Responder n (%): 10 (43.5) n (%)
[5]
  AAS7 % Change difference for rilzabrutinib vs. placebo LS Mean (95% CI): −38.35 (−79.56, 2.86) %
  AAS7 % Change from baseline LS Mean (SE): −87.33 (15.54) %
  AAS7 Change difference for rilzabrutinib vs. placebo LS Mean (95% CI): −13.07 (−24.96, −1.18)
  AAS7 Change from baseline LS Mean (SE): −43.40 (4.49)
  AAS7 Post-baseline Mean (SD): 7.10 (9.58)
[6]
  Non-responder n (%), AAS7 = 0: 16 (47.1) n (%)
  RRD (%) for rilzabrutinib vs. placebo (95% CI), AAS7 = 0: 6.0 %
  Responder n (%), AAS7 = 0: 18 (52.9) n (%)
[7]
  AAS7 % Change from baseline LS Mean (SE): −89.99 (16.85) %
  AAS7 = 0, Non-responder n (%): 13 (56.5) n (%)
  AAS7 = 0, OR (95% CI) for rilzabrutinib vs. placebo: 1.627
  AAS7 = 0, RRD (%) for rilzabrutinib vs. placebo (95% CI): 11.0 %
  AAS7 Post-baseline Mean (SD): 6.83 (9.73)
  Participants with AAS7 = 0, Responder n (%): 10 (43.5) n (%)
[8]
  AAS7 % Change difference for rilzabrutinib vs. placebo LS Mean (95% CI): −15.53 (−43.68, 12.62) %
  AAS7 Change difference for rilzabrutinib vs. placebo LS Mean (95% CI): −6.88 (−18.42, 4.67)
  AAS7 Change from baseline LS Mean (SE): −40.74 (4.34)
  AAS7 Post-baseline Mean (SD): 9.40 (13.36)
[9]
  Non-responder n (%), AAS7 = 0: 15 (44.1) n (%)
  OR (95% CI) for rilzabrutinib vs. placebo, AAS7 = 0: 1.142
  RRD (%) for rilzabrutinib vs. placebo (95% CI), AAS7 = 0: 3.1 %
  Responder n (%), AAS7 = 0: 19 (55.9) n (%)
[10]
  AAS7 = 0, Non-responder n (%): 13 (56.5) n (%)
  AAS7 = 0, OR (95% CI) for rilzabrutinib vs. placebo: 1.160
  AAS7 = 0, RRD (%) for rilzabrutinib vs. placebo (95% CI): 3.1 %
  AAS7 Post-baseline Mean (SD): 9.80 (13.81)
  Participants with AAS7 = 0, Responder n (%): 10 (43.5) n (%)
[11]
  AAS7 % Change difference for rilzabrutinib vs. placebo LS Mean (95% CI): −19.84 (−46.44, 6.76) %
  AAS7 % Change from baseline LS Mean (SE): −82.82 (10.03) %
  AAS7 Change difference for rilzabrutinib vs. placebo LS Mean (95% CI): −8.06 (−19.05, 2.94)
  AAS7 Change from baseline LS Mean (SE): −43.36 (4.14)
  AAS7 Post-baseline Mean (SD): 7.37 (12.64)
[12]
  patients with angioedema score (AAS7) of 0: 60.9%
  Non-responder n (%), AAS7 = 0: 12 (35.3) n (%)
  OR (95% CI) for rilzabrutinib vs. placebo, AAS7 = 0: 1.685
  RRD (%) for rilzabrutinib vs. placebo (95% CI), AAS7 = 0: 13.0 %
  Responder n (%), AAS7 = 0: 22 (64.7) n (%)
[13]
  AAS7 = 0, Non-responder n (%): 9 (39.1) n (%)
  AAS7 = 0, OR (95% CI) for rilzabrutinib vs. placebo: 3.085
  AAS7 = 0, RRD (%) for rilzabrutinib vs. placebo (95% CI): 29.7 %
  AAS7 Post-baseline Mean (SD): 7.10 (12.86)
  Participants with AAS7 = 0, Responder n (%): 14 (60.9) n (%)
[14]
  LS mean change from baseline in AAS7 at Week 12: −44.04
  decrease from baseline in AAS7 at Week 12: 84.63%
400 mg TID, within one week of initiating treatment, omalizumab-naïve
  patients achieving angioedema score (AAS7) of 0: 30.4%
[15]
  AAS7, Mean (SD): 30.42 (14.73)
  AAS7, Median: 30.42
  AAS7 Change from baseline, Mean (SD): 1.50 (2.12)
  AAS7 Change from baseline, Median: 1.50
  AAS7 Percent change from baseline, Median: 8.82
[16]
  AAS7, Mean (SD): 27.33 (24.01)
  AAS7, Median: 37.00
  AAS7 Change from baseline, Mean (SD): −38.33 (25.03)
  AAS7 Change from baseline, Median: −37.00
  AAS7 Percent change from baseline, Mean (SD): −57.91 (38.75) %
  AAS7 Percent change from baseline, Median: −50.00%
[17]
  AAS7 Change from baseline, Mean (SD): −21.44 (18.46)
  AAS7 Change from baseline, Median: −22.00
  AAS7 Percent change from baseline, Mean (SD): 62.04 (42.40) %
  AAS7 Percent change from baseline, Median: −82.71%
[18]
  AAS7, Median: 14.00
  AAS7 Change from baseline, Mean (SD): −22.60 (18.31)
  AAS7 Change from baseline, Median: −23.00
  AAS7 Percent change from baseline, Mean (SD): −45.07 (90.72) %
  AAS7 Percent change from baseline, Median: −77.03%
[19]
  AAS7, Median: 6.50
  AAS7 Change from baseline, Mean (SD): −30.63 (24.46)
  AAS7 Change from baseline, Median: −25.88
  AAS7 Percent change from baseline, Mean (SD): −45.93 (125.55) %
  AAS7 Percent change from baseline, Median: −89.45%
[20]
  AAS7 Change from baseline, Mean (SD): −30.05 (20.80)
  AAS7 Change from baseline, Median: −28.00
  AAS7 Percent change from baseline, Mean (SD): −53.69 (109.03) %
  AAS7 Percent change from baseline, Median: −82.09%
[21]
  AAS7, Median: 0.00
  AAS7 Change from baseline, Mean (SD): −30.86 (24.37)
  AAS7 Change from baseline, Median: −24.00
  AAS7 Percent change from baseline, Mean (SD): −66.40 (54.16) %
  AAS7 Percent change from baseline, Median: −100.00%
[22]
  AAS7, Median: 3.00
  AAS7 Change from baseline, Mean (SD): −31.58 (23.39)
  AAS7 Change from baseline, Median: −24.00
  AAS7 Percent change from baseline, Mean (SD): −70.72 (39.56) %
  AAS7 Percent change from baseline, Median: −92.19%
[23]
  AAS7, Median: 4.67
  AAS7 Change from baseline, Mean (SD): −33.54 (24.64)
  AAS7 Change from baseline, Median: −30.00
  AAS7 Percent change from baseline, Mean (SD): −68.05 (40.33) %
  AAS7 Percent change from baseline, Median: −88.60%
[24]
  AAS7, Median: 0.00
  AAS7 Change from baseline, Mean (SD): −36.21 (24.67)
  AAS7 Change from baseline, Median: −32.00
  AAS7 Percent change from baseline, Mean (SD): −74.90 (43.31) %
  AAS7 Percent change from baseline, Median: −100.00%
[25]
  AAS7, Median: 0.00
  AAS7 Change from baseline, Mean (SD): −34.83 (26.07)
  AAS7 Change from baseline, Median: −32.00
  AAS7 Percent change from baseline, Mean (SD): −67.10 (66.88) %
  AAS7 Percent change from baseline, Median: −100.00%
